Values joined by “and” are separate entries in the source; they are usually repeats but may differ in a detail not shown here. Identical values can stand only once.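 Where inhibition never reached the appropriate level, the endpoint shown equals the highest concentration tested. Otherwise, values were interpolated linearly from a five-concentration, 48-hour dose response in 96-well plates. GI50 is the concentration that inhibits growth by half. At the TGI there is no net growth.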
Tests used:
Assay in all cases: NCI-60 cell line screen, 48 h
[1] = tested on: A498 renal
[2] = tested on: DU-145 prostate
[3] = tested on: HCT-15 colon
[4] = tested on: HS 578T breast
[5] = tested on: K-562 leukemia
[6] = tested on: NCI-H226 lung
[7] = tested on: OVCAR-3 ovarian
[8] = tested on: SNB-19 CNS
[9] = tested on: U251 CNS
[10] = tested on: UO-31 renal

| SMILES | GI50 [1] [µM] | TGI [1] | GI50 [2] [µM] | TGI [2] | TGI [3] | TGI [4] | GI50 [5] [µM] | TGI [5] | GI50 [6] | TGI [6] | TGI [7] | TGI [8] | GI50 [9] [µM] | TGI [9] | TGI [10] | GI50 [3] [µM] | GI50 [4] [µM] | GI50 [7] | GI50 [8] [µM] | GI50 [10] [µM] |
| --- | --- | --- | --- | --- | --- | --- | --- | --- | --- | --- | --- | --- | --- | --- | --- | --- | --- | --- | --- | --- |
| COc1ccc(OC)c(/C=C/[N+](=O)[O-])c1 | 3.26 | 8.42 µM and 8.29 µM | 2.57 | 8.37 µM and 10.5 µM | 17.1 µM and 6.73 µM | 14.6 µM | 2.08 | 6.96 µM and 14.8 µM | 1.93 µM and 4.06 µM | 4.41 µM and 10.2 µM | 4.9 µM and 3.31 µM | 15.2 µM and 9.89 µM | 2.27 | 8.86 µM and 7.37 µM | 3.39 µM and 5.62 µM | – | – | – | – | – |
| C=CC1CC12C(=O)C1OC2(C)C2C(=O)c3ccccc3C(=O)C12 (centres undefined) | > 100 | > 100 µM | 72.7 | > 100 µM | > 100 µM | 98.2 µM | 2.3 | 6.94 µM | > 76.2 µM | > 100 µM | 60.5 µM | > 84.7 µM | 38.7 | > 100 µM | > 100 µM | 41.9 | > 57.4 | 13.9 µM | > 47.7 | > 87.3 |
| COC1/C=C/O[C@@]2(C)Oc3c(C)c(O)c4c(O)c(cc(O)c4c3C2=O)NC(=O)/C(C)=C\C=C\[C@H](C)C(O)[C@@H](C)[C@@H](O)[C@@H](C)[C@H](OC(C)=O)[C@@H]1C (some centres undefined) | – | 96.9 µM | 12.3 | 26.8 µM and 54.5 µM | 35.1 µM and 49.8 µM | 64.6 µM and 114 µM | 4.47 | 21.8 µM and 82.6 µM | 39.6 µM and 59.3 µM | 179 µM | 15.1 µM and 22.9 µM | 220 µM | 16.5 | 30.1 µM and 116 µM | 24.4 µM and 96.9 µM | 20.9 | 24.2 | 2.6 µM and 8.56 µM | 51.8 | 12 |
| COc1ccc2c(c1)O/C(=C\c1cccc(OCC(=O)Nc3nc4ccccc4s3)c1)C2=O | 10.1 | > 93.3 µM | 3.57 | 21.9 µM | > 100 µM | 70.1 µM | 6.07 | > 100 µM | 42 µM | > 100 µM | 9.56 µM | > 100 µM | 12.6 | 53.3 µM | 3 µM | 13.9 | 13.8 | 3.16 µM | > 57.8 | 1.53 |
| COc1ccc(-c2nc(-c3nc4ccc(F)cc4[nH]3)cc3c2[nH]c2ccccc23)cc1 | 1.92 | 9.7 µM | 2.99 | 9.65 µM | > 100 µM | > 100 µM | 2.79 | > 100 µM | 3.12 µM | > 100 µM | 5.01 µM | > 100 µM | 2.42 | 7.26 µM | 8.74 µM | 2.82 | 2.82 | 2.23 µM | 2.94 | 2.54 |
| CCN(CC)c1ccc(NC(C(=O)c2ccccc2)c2ccccc2)cc1 (centres undefined) | 2.71 | 10.1 µM | 2.24 | 5.08 µM | 5.31 µM | 47.1 µM | 3.27 | 55.1 µM | 1.76 µM | 3.53 µM | 8.15 µM | 19.1 µM | 2.72 | 10 µM | 4.18 µM | 1.96 | 3.41 | 3.05 µM | 3.45 | 1.9 |
